# In EP4702986A1, “POLYPEPTIDE AND USE THEREOF” (Biocells (Beijing) Biotech Co., Ltd., priority 2023, dated 2024):
# Numbered stars: 1 amine (or outer) side, 2 acyl side, 3 side chain; on linkers, the order of the positions; unused ones are H or OH. Bridge positions count the residues as written; N and C are the ends. Side chains are listed from the residue outwards. Peptide text beside a SMILES is read from it. * marks the point of attachment. γGlu = O=C(O)[C@H](CCC(=O)[*:2])N[*:1]; Fumaroyl = O=C(O)/C=C/C(=O)*; Suc = O=C(CCC(=O)[*:2])[*:1]; Lauroyl = CCCCCCCCCCCC(=O)*; AEEA = NCCOCCOCC(=O)O
# Legend:
# human ETA receptor = target: T1, human ETA receptor (Homo sapiens, UniProt P25101); experiment: Selectivity of polypeptides on human ETA receptor (IP-One Gq kit, % of positive control ET1); format: cell-based; conditions: read-out: hETAR agonist activity, percentage of activity relative to ET1
# T1 construct: expressed in transfected cells; host or cells: 293T-17 cells, transient transfection
# T1 sequence (P25101 21-427): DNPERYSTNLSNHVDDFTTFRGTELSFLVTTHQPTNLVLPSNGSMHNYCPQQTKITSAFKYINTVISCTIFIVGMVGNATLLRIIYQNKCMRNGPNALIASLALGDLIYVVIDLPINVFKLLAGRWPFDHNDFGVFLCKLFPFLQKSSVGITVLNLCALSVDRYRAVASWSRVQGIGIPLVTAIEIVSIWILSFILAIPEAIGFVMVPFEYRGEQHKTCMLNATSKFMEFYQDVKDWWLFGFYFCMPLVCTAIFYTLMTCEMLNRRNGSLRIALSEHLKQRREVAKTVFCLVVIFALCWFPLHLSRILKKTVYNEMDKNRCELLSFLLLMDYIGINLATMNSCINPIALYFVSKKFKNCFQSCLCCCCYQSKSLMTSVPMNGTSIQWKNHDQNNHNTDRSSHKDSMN
# In short: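 293T-17 cells transiently transfected with human ETA receptor (48 h), 30,000 cells/well exposed to polypeptides for 1 h at 37°C; IP1 accumulation by HTRF (665/620 nm ratio). Activity given as % of ET1 at the same concentration after PBS-control subtraction.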
# rat model of pMACO [1] = experiment: Grip strength test in rat model of pMACO; format: in vivo, SD rats; conditions: pMACO rats; 3 administrations (2, 4, 6 h after modeling); IRL1620 5µg/Kg, BX34 7µg/Kg, BX48 5µg/Kg
# rat model of pMACO [2] = experiment: Rotarod test in rat model of pMACO; format: in vivo, SD rats; conditions: IRL1620 5 µg/Kg, BX34 7 µg/Kg, BX48 5 µg/Kg, administered 3 times (2, 4, 6 hours after modeling), n=10
# From the text: (§1) Male SD rats weighing 280-300 g were used and acclimated for at least 3 days. Focal cerebral ischemia was induced by middle cerebral artery occlusion with a suture method under isoflurane anesthesia. The animals were placed in a secure supine position, and a midline incision was made to expose the right common carotid artery, external carotid artery, and internal carotid artery. A 4.0 monofilament nylon suture was advanced from the external carotid artery toward the internal carotid artery lumen until resistance was felt ( ~ 20 mm), indicating middle cerebral artery occlusion. The nylon filament was allowed to stay in place to create a permanent model of focal cerebral ischemia. Successfully modeled rats were randomly assigned to four groups: a solvent (normal saline) group (n=10), a 7 µg/Kg BX-34 group (n=10), a 5 µg/Kg BX-48 group (n=10), and a 5 µg/Kg IRL1620 group (n=10). Each group was administered once at 2 hours, 4 hours, and 6 hours, respectively, after modeling, for a total of three administrations. Grip strength was measured before administration and at 24 hours and on D3 and D7 after administration. A rotarod test and a foot fault test were performed before administration and at 24 hours and day 7 after administration. During the rotarod test, time and distance were recorded, and ratios of the measurement at 24 hours and the measurement at D7 to the pretest measurement were used as analysis indicators. The specific method for the foot fault test was as follows. The rats were placed on an elevated grid floor (29×29 cm, grid opening: 3 cm^2) for 2 minutes, and the number of foot faults (when a forelimb fell through the grid) and the total steps were recorded. % Foot fault = (the number of forelimb faults/the total number of forelimb steps) × 100.
# rat model of pMACO [3] = experiment: Foot fault test in rat model of pMACO; format: in vivo, SD rats
# From the text: as §1
# rat model of pMACO [4] = experiment: Foot fault test in rat model of pMACO; format: in vivo, SD rats; conditions: rat pMCAO; D7 after administration; comparison in words
# [5] = Determination of half-lives of polypeptides (plasma, LC-MS)
# human ETB receptor = target: T2, human ETB receptor (Homo sapiens, UniProt P24530); experiment: Determination of EC50 of polypeptides against human ETB receptor (IP-One Gq kit); format: cell-based; conditions: 293T-17 cells transfected with PCDNA3.1-hETB; read-out: hETBR agonist activity EC50/nM
# T2 construct: expressed in transfected cells; host or cells: 293T-17 cells, transient transfection
# T2 sequence (P24530 27-442): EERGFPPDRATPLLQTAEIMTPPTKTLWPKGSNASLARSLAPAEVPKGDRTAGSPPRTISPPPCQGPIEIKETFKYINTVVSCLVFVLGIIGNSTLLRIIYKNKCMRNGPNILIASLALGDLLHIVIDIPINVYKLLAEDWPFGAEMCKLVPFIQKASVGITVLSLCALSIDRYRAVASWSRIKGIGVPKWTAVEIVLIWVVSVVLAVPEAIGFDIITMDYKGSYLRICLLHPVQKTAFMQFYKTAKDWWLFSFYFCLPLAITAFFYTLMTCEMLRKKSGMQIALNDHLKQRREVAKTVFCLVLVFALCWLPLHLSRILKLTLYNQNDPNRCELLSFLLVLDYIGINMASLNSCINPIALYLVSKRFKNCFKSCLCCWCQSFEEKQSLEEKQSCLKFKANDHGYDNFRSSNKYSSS
# Procedure: 293T-17 cells were seeded at a density of 650,000 cells per well in a 6-well plate and cultured overnight in an incubator at 37°C and 5% CO2. Afterward, the cells were transfected with an expression vector, PCDNA3.1-hETB which contained a human ETB receptor gene, at a plasmid concentration of 2.5 µg per well. The cells were further cultured for 48 hours, and green fluorescence expression was observed under a fluorescence microscope. The cells were then digested with trypsin and counted. The activity of compounds on the human ETB receptor was determined with the IP-One Gq kit from Cisbio Bioassays. The cells were suspended in Stim Buffer provided in the kit and the cell suspension was added to a 96-well detection plate at 7 µL cell suspension (containing 30,000 cells) per well. The polypeptides to be tested (prepared according to the Preparation Example of the invention) were diluted in Stim B to obtain a gradient of 11 concentration points. For each concentration point, the polypeptides to be tested were dissolved in Stim B to be at a concentration of 2×, and added at 7 µL to the test cells, while 7 µL of PBS solution was added to the cells in the negative control wells. The plate was sealed and incubated at 37°C for 1 hour in a cell culture incubator. Detection wells, positive control wells containing human endothelin ET1 (ET1: […] (C1-C15,C3-C11)), and PBS control wells were each added with 3 µL of IP1 d2 working solution and 3 µL of IP1 Tb cryptotate Antibody working solution. The plate was then sealed and incubated in the dark at room temperature (25°C±5°C) for 1 hour. The plate seal was removed, and the […] at 665 nm and 620 nm was measured with an ID5 microplate reader. The ratio of the acceptor emission signal to the donor emission signal, i.e., (signal at 665 nm/signal at 620 nm)×10^4, was calculated for each well. With F representing the average value of values of signal at 665 nm/signal at 620 nm for the test samples at various concentrations, a scatterplot was plotted, where the abscissa represented the F value, and the ordinate represented the logarithmic value of the peptide concentration. A curve was fitted with an appropriate method to calculate EC50 values of the polypeptides against the human ETB receptor. Another method was provided for fitting a curve where activation rate of the test polypeptides at each concentration relative to the positive control sample human endothelin ET1 was calculated first with the method in Example 1, and a scatterplot was plotted, where the abscissa represented the activation rate, and the ordinate represented the logarithmic value of the polypeptide concentration. A curve was fitted with an appropriate method to calculate the EC50 values of the polypeptides against the human ETB receptor.
Structure (SMILES),activation at 10 µM (human ETA receptor; @10µM) [%],activation at 100 µM (human ETA receptor; @100µM) [%],Grip Strength Test 3D/pre (rat model of pMACO [1]),Grip Strength Test 7D/pre (rat model of pMACO [1]),Grip Strength Test 24h/pre (rat model of pMACO [1]),"Rotarod Test 7D/pretest (%) Distance, m (rat model of pMACO [2]; 7D relative to pretest)","Rotarod Test 7D/pretest (%) Time, s (rat model of pMACO [2]; 7D relative to pretest)",Rotarod Test 7D/pretest (%) Velocity (rat model of pMACO [2]; 7D relative to pretest),"Rotarod Test 24h/pretest (%) Distance, m (rat model of pMACO [2]; 24h relative to pretest)","Rotarod Test 24h/pretest (%) Time, s (rat model of pMACO [2]; 24h relative to pretest)",Rotarod Test 24h/pretest (%) Velocity (rat model of pMACO [2]; 24h relative to pretest),"percentages of foot faults compared with the saline group and the IRL1620 group (rat model of pMACO [3]; pMACO rats, BX-34 7 µg/Kg, BX-48 5 µg/Kg, three administrations)","Foot fault Analysis Mean of 7D (rat model of pMACO [3]; percentage of foot faults at 7D, IRL1620 5 µg/Kg, BX34 7 µg/Kg, BX48 5 µg/Kg, administered 3 times (2, 4, 6 hours after modeling))","Foot fault Analysis Mean of 24h (rat model of pMACO [3]; percentage of foot faults at 24h, IRL1620 5 µg/Kg, BX34 7 µg/Kg, BX48 5 µg/Kg, administered 3 times (2, 4, 6 hours after modeling))","Foot fault Analysis Mean of Pretest (rat model of pMACO [3]; percentage of foot faults, pretest (baseline before administration), groups IRL1620 5 µg/Kg, BX34 7 µg/Kg, BX48 5 µg/Kg, 3 times)",percentages of foot faults (rat model of pMACO [4]),"half-life ([5]; C57 BL/6, mouse, plasma, iv) [min]","AUClast 0-30 min ([5]; C57 BL/6 mice, i.v., dosage per compound 0.48, 0.96 or 1 mpk) [ng·h/mL]",EC50 (human ETB receptor) [nM]
CC[C@H](C)[C@H](NC(=O)[C@H](CC(=O)O)NC(=O)[C@H](CC(C)C)NC(=O)[C@H](Cc1c[nH]cn1)NC(=O)[C@H](C)NC(=O)[C@H](Cc1ccccc1)NC(=O)[C@H](Cc1ccc(O)cc1)NC(=O)[C@@H]1CCCCNC(=O)CC[C@H](NC(=O)[C@H](CC(=O)O)NC(=O)CCC(=O)O)C(=O)N[C@@H](CCC(=O)O)C(=O)N[C@@H](C)C(=O)N1)C(=O)N[C@H](C(=O)N[C@@H](Cc1c[nH]c2ccccc12)C(=O)O)[C@@H](C)CC [BX-48] (Suc-DEEAKYFAHLDIIW-OH; lactam 2-5),4.45,9.37,60% ±7%,66% ±22%,47% ±23%,64.97%±19.43%,81.64%±10.87%,76.52%±13.55%,16.15%±22.62%,23.79%±27.04%,47.16%±30.9A %,lower,2.24%±3.1%,10.89%±10.53%,1.11%±0.95%,lower than that of the saline group and the IRL1620 group,3.9,757,–
CCCCCCCCCCCC(=O)N[C@@H](CCC(=O)NCCOCCOCC(=O)NCCCC[C@H](NC(=O)[C@H](Cc1c[nH]cn1)NC(=O)[C@H](C)NC(=O)[C@H](Cc1ccccc1)NC(=O)[C@H](Cc1ccc(O)cc1)NC(=O)[C@@H](NC(=O)[C@H](C)NC(=O)[C@H](CCC(=O)O)NC(=O)[C@H](CCC(=O)O)NC(=O)[C@H](CC(=O)O)NC(=O)/C=C/C(=O)O)C(C)C)C(=O)N[C@@H](CC(=O)O)C(=O)N[C@H](C(=O)N[C@H](C(=O)N[C@@H](Cc1c[nH]c2ccccc12)C(=O)O)[C@@H](C)CC)[C@@H](C)CC)C(=O)O [BX-225-Na] (Fumaroyl-DEEAVYFAHK([AEEA-γGlu-Lauroyl])DIIW-OH),–,–,–,–,–,–,–,–,–,–,–,–,–,–,–,–,–,–,134
CC[C@H](C)[C@H](NC(=O)[C@H](CC(=O)O)NC(=O)[C@@H]1CCCCNC(=O)CC[C@H](NC(=O)[C@H](CCC(=O)O)NC(=O)[C@H](CCC(=O)O)NC(=O)[C@H](CC(=O)O)NC(=O)/C=C/C(=O)O)C(=O)N[C@@H](C(C)C)C(=O)N[C@@H](Cc2ccc(O)cc2)C(=O)N[C@@H](Cc2ccccc2)C(=O)N[C@@H](CCCCN)C(=O)N[C@@H](Cc2c[nH]cn2)C(=O)N1)C(=O)N[C@H](C(=O)N[C@@H](Cc1c[nH]c2ccccc12)C(=O)O)[C@@H](C)CC [QP-3] (Fumaroyl-DEEEVYFKHKDIIW-OH; lactam 4-10),–,–,–,–,–,–,–,–,–,–,–,–,–,–,–,–,–,–,3.85
